From paper PMC11091968, “Degradation of the α-Carboxyl Terminus 11 Peptide: In Vivo and Ex Vivo Impacts of Time, Temperature, Inhibitors, and Gender in Rat” (ACS Pharmacology & Translational Science, 2024)
Counter-ions that a name gives are not always drawn. Like-named read-outs stand apart in the source and are kept apart here. Residues, ends and D or L forms follow the SMILES beside them. *: point of attachment. Biotin = O=C1N[C@H]2[C@H](CS[C@H]2CCCCC(=O)*)N1; Ahx = NCCCCCC(=O)O

Assays:
[1] = tested on: serine/threonine protein phosphatases; details: against serine/threonine protein phosphatases; 14 (Table S4); cited from earlier work
Text: (§1) page 5: S-5 Table S4. Protease and phosphatase inhibitor cocktail and their major targets. Abbreviations: AEBSF: 4-(2-aminoethyl) benzenesulfonyl fluoride hydrochloride; ATPase: adenosine 5′ -triphosphatase; E-64: L-trans-3-carboxyoxiran-2-carbonyl-L-leucylagmatine; IC 50: half maximal inhibitory concentration;; Ki: inhibitory constant; MW: molecular weight; N/A: not applicable; PP1 or 2A: protein ph osphatase 1 or 2A; PTP: protein tyrosine phosphatase; K293: human embryonic kidney cell line; HS596: human HS683 glioma cell line; SKN695: human SK-N-SH neuroblastoma cell line. Ingredient MW (Da ...

[2] = tested on: serine/threonine protein phosphatases 2A; details: against serine/threonine protein phosphatases 2A; 14 (Table S4); cited from earlier work
Text: as §1

[3] = biological target: plasmin; details: against plasmin; 10 (Table S4); cited from earlier work
Text: as §1

[4] = biological target: trypsin; details: against trypsin; 10 (Table S4); cited from earlier work
Text: as §1

[5] = tested on: phosphatidylserine; details: cited from earlier work
Text: as §1

[6] = Storage stability at 4 °C of plasma samples prepared for mass spectrum analysis; assay type: physicochemical; details: mass spectrum samples from male rat plasma
Procedure: Plasma samples collected from either in vivo (see the In Vivo “Pharmacokinetic” Analysis of αCT11 section) or ex vivo (see the Ex Vivo Degradation Analysis of αCT11 in Rat Plasma section) groups were processed in the same way outlined here, according to the modified protocol from a previous publication.[36] Briefly, 100 μL of plasma was added to a 0.5 mL low-adhesion microcentrifuge tube containing 4% FA in 200 μL of ACN [see Table S1]. The tubes were slightly (∼1 min) vortexed and centrifuged for 5 min at 11,332g using an Eppendorf Centrifuge 5424R (Eppendorf North America, Framingham, MA) to recover the supernatants. 100 μL of the supernatant was then combined with 100 μL of deionized H2O in 2 mL amber autovials with a low-volume insert and capped. The samples were either stored at 4 °C up to 4 weeks (see the Results section) or analyzed immediately using a Waters H-Class UPLC mass spectrometer (Milford, MA) and its accompanying MassLynx software, version 4.2 (Milford, MA). […]
Following the initial measurements at Week 0 (i.e., Day 0 when fresh plasma was isolated and αCT11 concentrations were measured at 0 min at 22 °C and 37 °C), the same samples used in each conduction were stored at 4 °C for 1 week (A), 4 weeks (B), or 6 weeks (C) before being used again to measure the peptide concentrations. […]

[7] = In vivo "pharmacokinetic" analysis of αCT11 in plasma after tail vein injection; parameters: species or system rat; details: tail vein injection to 100 μM in blood, LC-MS/MS, n = 3
Procedure: A second group of rats (only male) was not subjected to MI but injected (via the tail vein) with the same concentration of αCT11 as described in the Rat Model of I/R MI and Tail Vein Injection of αCT11 section. After injection, about 250–350 μL of blood was withdrawn at 1, 5, and 10 min following administration and transferred into an anticlotting tube containing heparin. Plasma was then separated at 4 °C and 2000g for 10 min using an Eppendorf Centrifuge 5810R (Eppendorf North America, Framingham, MA) and stored at −80 °C or used immediately for liquid chromatography tandem mass spectrometry (LC/MS-MS; described in the Prepreparation and Measurements of Plasma Containing αCT11 for LC/MS-MS Analysis section).
Plasma samples collected from either in vivo (see the In Vivo “Pharmacokinetic” Analysis of αCT11 section) or ex vivo (see the Ex Vivo Degradation Analysis of αCT11 in Rat Plasma section) groups were processed in the same way outlined here, according to the modified protocol from a previous publication.[36] Briefly, 100 μL of plasma was added to a 0.5 mL low-adhesion microcentrifuge tube containing 4% FA in 200 μL of ACN [see Table S1]. […] The samples were either stored at 4 °C up to 4 weeks (see the Results section) or analyzed immediately using a Waters H-Class UPLC mass spectrometer (Milford, MA) and its accompanying MassLynx software, version 4.2 (Milford, MA). […]

[8] = Ex vivo degradation of αCT11 in isolated rat plasma; assay type: in vitro ADME; details: for remaining at 5 min, 100 μM: 100 μM αCT11, 5 min
Text: A third group of rats (including both males and females) was not subjected to either MI or the tail vein injection of αCT11. Instead, after injection of heparin (300 U/mL blood, the total units of heparin were estimated from body weight of each rat), as much blood as possible was collected under deep anesthesia via a cardiac puncture with a 21G needle connected to a syringe containing heparin. Blood was then transferred into an anticlotting tube on ice, followed by plasma separation as described above. All plasma collected from either males or females were randomly sorted into 4 groups (G) per gender [G1: 22 °C; G2: 37 °C, G3: 22 °C + inhibitor cocktail and G4: 37 °C + inhibitor cocktail] and incubated at 22 °C [in an Eppendorf thermomixer (Eppendorf North America, Framingham, MA)] or at 37 °C [in a digital dry bath (Benchmark, Sayreville, NJ)] with or without additions of αCT11 (at a final concentration of 100 μM in each tube) in the presence or absence of a PTase/PPTase inhibitor cocktail (at a final concentration of 1.5× of the original concentration). It took less than ∼30 s for the 22 °C groups to reach 22 °C and ∼75 s for the 37 °C groups to reach 37 °C. […], 100 μL of plasma was taken in triplicate from the tube of each animal at 0, 5, 30, and 60 min following additions of αCT11 and the cocktail inhibitors (if applied). The collected samples were then transferred to new tubes for further preparation prior to LC/MS-MS analysis.
Plasma samples collected from either in vivo (see the In Vivo “Pharmacokinetic” Analysis of αCT11 section) or ex vivo (see the Ex Vivo Degradation Analysis of αCT11 in Rat Plasma section) groups were processed in the same way outlined here, according to the modified protocol from a previous publication.[36] Briefly, 100 μL of plasma was added to a 0.5 mL low-adhesion microcentrifuge tube containing 4% FA in 200 μL of ACN [see Table S1]. The tubes were slightly (∼1 min) vortexed and centrifuged for 5 min at 11,332g using an Eppendorf Centrifuge 5424R (Eppendorf North America, Framingham, MA) to recover the supernatants. 100 μL of the supernatant was then combined with 100 μL of deionized H2O in 2 mL amber autovials with a low-volume insert and capped. The samples were either stored at 4 °C up to 4 weeks (see the Results section) or analyzed immediately using a Waters H-Class UPLC mass spectrometer (Milford, MA) and its accompanying MassLynx software, version 4.2 (Milford, MA).
For measurement, the sample extracts were first separated chromatographically with an HSS T3 column and matching VanGurd column at 40 °C. A 4 μL sample was injected onto the column using a refrigerated autosampler at 5 °C. Mobile phase A was comprised of 1% FA in H2O and mobile phase B was comprised of 1% FA in ACN (Table S1). The mobile phase was delivered to the column at a flow rate of 0.4 mL/min. Tuning was performed on each analyte by direct infusion of a standard solution (0.1 ng/μL) at a rate of 10 μL/min. The parent and production transitions for αCT11 peptide are shown in Table S2, while the mass spectrometry parameters used for detecting αCT11 are listed in Table S3.
Data were collected at 0 min in triplicate from each group using LC/MS-MS and were first calibrated as 100%; all other data from the same group were then normalized as % change over the data at 0 min. A Student’s t-test was used for comparison of 2 groups, while 1- or 2-way ANOVA followed by Tukey’s test was used for comparisons of ≥3 groups with 1 or 2 factors. All data were expressed as mean ± standard error (SE), if not otherwise specified, with p < 0.05 considered statistically significant. Data were analyzed and plotted using GraphPad Prism 9.3.1 (San Diego, CA) and Microsoft 2019 MS Excel (Redmond, WA).

[9] = biological target: lysosomal and prostatic acid phosphatases; details: against lysosomal and prostatic acid phosphatases; 21 (Table S4); cited from earlier work
Text: as §1

[10] = biological target: Aspartic proteases; details: enzyme not given; 11 (Table S4); cited from earlier work
Text: as §1

[11] = tested on: human cathepsin D; parameters: method as in earlier work; details: against human cathepsin D; 11 (Table S4); cited from earlier work
Text: as §1, with “line.” for “line. Ingredient MW (Da ...”

[12] = biological target: papain; details: against papain; 8 (Table S4); cited from earlier work
Text: as §1

[13] = tested on: SKN695 cells; details: tested on SKN695 cells (human SK-N-SH neuroblastoma cell line); ref 1-3 (Table S4); cited from earlier work
Text: as §1

[14] = tested on: HS596 cells; details: tested on HS596 cells (human HS683 glioma cell line); ref 1-3 (Table S4); cited from earlier work
Text: as §1

[15] = tested on: K293 cells; details: tested on K293 cells (human embryonic kidney cell line); ref 1-3 (Table S4); cited from earlier work
Text: as §1

Compound: C[C@@]12C(=O)OC(=O)[C@]1(C)[C@H]1CC[C@@H]2O1 [Cantharidin]
- IC50 [1]: 0.47 µM
- IC50 [2]: 0.04 µM

Compound: Leupeptin
- Ki [3]: 0.0034 µM
- Ki [4]: 0.0035 µM

Compound: [Na+].[Na+].[Na+].[O]=[V]([O-])([O-])[O-] [Sodium orthovanadate]
- IC50 [5]: 100 µM

Compound: CC[C@H](C)[C@H](NC(=O)[C@H](CCC(=O)O)NC(=O)[C@H](CC(C)C)NC(=O)[C@H](CC(=O)O)NC(=O)[C@H](CC(=O)O)NC(=O)[C@@H]1CCCN1C(=O)[C@H](CCCNC(=N)N)NC(=O)[C@@H]1CCCN1C(=O)[C@H](CCCNC(=N)N)NC(=O)CCCCCNC(=O)CCCC[C@@H]1SC[C@@H]2NC(=O)N[C@@H]21)C(=O)O [αCT11] ({Biotin-Ahx}-RPRPDDLEI-OH)
- storage time at 4 °C without significant degradation of αCT11 [6]: up to 4 weeks
- reduction of the initial αCT11 concentration in plasma ([7]; male rats without MI, about 5 min postinjection): ~53%
- αCT11 in blood plasma 10 min after tail vein injection ([7]; male rats, 10 min postinjection): almost undetectable
- remaining at 5 min, 100 μM ([8]; isolated heparinised female rat plasma, 22 °C, with 1.5× PTase/PPTase inhibitor cocktail, LC-MS/MS, mean ± SE, n = 3 rats, read-out: percentage of αCT11 (normalized to 0 min)): 80.9 ± 3.7%
- remaining at 1 h, 100 μM ([8]; isolated heparinised female rat plasma, 22 °C, with 1.5× PTase/PPTase inhibitor cocktail, 100 μM αCT11, 60 min, LC-MS/MS, mean ± SE, n = 3 rats, read-out: percentage of αCT11 (normalized to 0 min)): 13.2 ± 3.3%
- remaining at 5 min, 100 μM ([8]; isolated heparinised female rat plasma, 37 °C, no inhibitors, LC-MS/MS, mean ± SE, n = 3 rats (9 replicates), read-out: αCT11 level, % of starting concentration (0 min)): 51.4 ± 3.5%
- αCT11 level, % of starting concentration (0 min) ([8]; isolated heparinised female rat plasma, 37 °C, no inhibitors, 100 μM αCT11, 30 min, LC-MS/MS, mean ± SE, n = 3 rats (9 replicates)): 1.6 ± 0.6%
- remaining at 1 h, 100 μM ([8]; isolated heparinised female rat plasma, 37 °C, no inhibitors, 100 μM αCT11, 60 min, LC-MS/MS, mean ± SE, n = 3 rats (9 replicates), read-out: αCT11 level, % of starting concentration (0 min)): 0.1 ± 0.03%
- remaining at 0.5 h, 100 μM ([8]; isolated heparinised male rat plasma, 22 °C, with 1.5× PTase/PPTase inhibitor cocktail, 100 μM αCT11, 30 min, LC-MS/MS, mean ± SE, n = 3 rats, read-out: percentage of αCT11 (normalized to 0 min)): 41.6 ± 3.3%
- remaining at 1 h, 100 μM ([8]; isolated heparinised male rat plasma, 22 °C, with 1.5× PTase/PPTase inhibitor cocktail, 100 μM αCT11, 60 min, LC-MS/MS, mean ± SE, n = 3 rats, read-out: percentage of αCT11 (normalized to 0 min)): 19.1 ± 2.7%
- remaining at 5 min, 100 μM ([8]; isolated heparinised male rat plasma, 37 °C, no inhibitors, LC-MS/MS, mean ± SE, n = 3 rats (9 replicates), read-out: αCT11 level, % of starting concentration (0 min)): 61.9 ± 5.7%
- remaining at 0.5 h, 100 μM ([8]; isolated heparinised male rat plasma, 37 °C, no inhibitors, 100 μM αCT11, 30 min, LC-MS/MS, mean ± SE, n = 3 rats (9 replicates), read-out: αCT11 level, % of starting concentration (0 min)): 1.5 ± 1.2%
- remaining at 1 h, 100 μM ([8]; isolated heparinised male rat plasma, 37 °C, no inhibitors, 100 μM αCT11, 60 min, LC-MS/MS, mean ± SE, n = 3 rats (9 replicates), read-out: αCT11 level, % of starting concentration (0 min)): 0.04 ± 0.06%
- αCT11 in isolated plasma by 30 min ([8]; isolated rat plasma, 22 and 37 °C, no inhibitors, 30 min, LC-MS/MS): nearly undetectable
- αCT11 concentrations, male vs female rat plasma ([8]; isolated rat plasma, 22 or 37 °C, absence and presence of 1.5× inhibitors, any time point (0, 5, 30, 60 min), LC-MS/MS, n = 3): no significant differences
- αCT11 in ex vivo plasma at 60 min ([8]; isolated rat plasma, males and females, 22 °C, no inhibitors, 100 μM αCT11, 60 min, LC-MS/MS): almost undetectable
- time for αCT11 concentration to decrease to 50% in ex vivo plasma ([8]; isolated rat plasma, males and females, 22 °C, no inhibitors, 100 μM αCT11, LC-MS/MS): about 10 min

Compound: O=C([O-])C(O)C(O)C(=O)[O-].[Na+].[Na+] (centres unmarked) [Sodium tartrate]
- Ki [9]: 1 µM

Compound: Pepstatin A
- Ki [10]: 0.01 nM
- IC50 [11]: 0.021 µM

Compound: CC(C)C[C@H](NC(=O)[C@H]1O[C@@H]1C(=O)O)C(=O)NCCCCN=C(N)N (relative stereo) [E-64, L-trans-3-carboxyoxiran-2-carbonyl-L-leucylagmatine]
- Ki [12]: 0.009 µM

Compound: NCCc1ccc(S(=O)(=O)F)cc1 [AEBSF, 4-(2-aminoethyl) benzenesulfonyl fluoride hydrochloride]
- IC50 [13]: 300 µM
- IC50 [14]: 300 µM
- IC50 [15]: 1000 µM
